Measurements from patent US20230295234A1, “ANTIMICROBIAL PEPTIDOMIMETICS” (SPEXIS AG, priority 2020, published 2023).
Bridge positions count the residues as written; N and C are the ends. Square brackets hold non-standard residues; d marks the D form. Peptide text beside a SMILES is read from it. Pro(4R-NH2) = N[C@H]1CN[C@H](C(=O)O)C1; Hyp = O=C(O)[C@@H]1C[C@@H](O)CN1; Gly(N(CH2)3NH2) = NCCCNCC(=O)O; Pen = CC(C)(S)[C@H](N)C(=O)O; dDab = NCC[C@@H](N)C(=O)O; Dab = NCC[C@H](N)C(=O)O; Nlys = NCCCCNCC(=O)O

Legend:
[1] = system: Klebsiella pneumoniae SSI3010; details: SSI3010
Description: (§1) Lyophilized peptides were weighed on a Microbalance (Mettler MT5) and dissolved in sterile water to a final concentration of 1 mg/mL. Stock solutions were kept at +4° C., light protected.
(§2) Colonies of the microorganisms were diluted in saline (0.85%, NaCl) and adjusted using a McFarland reader (bioMérieux SA, Marcy-l'Etoile, France) to 0.5 McFarland standard. Subsequently, the bacterial suspension was diluted in Mueller-Hinton II (MHII, cation adjusted) broth to give approximately 5×10^5 colony forming units (CFU/mL).
(§3) 10^6 colony forming units (CFU)/mL. Aliquots (90 μl) of inoculate were added to 10 μl of water+P-80 (Polysorbate 80, 0.002% final concentration) containing the peptide in serial two-fold dilutions at 10 fold final concentration. The following microorganisms were used to determine antibiotic selectivity of the peptides: Escherichia coli ATCC 25922, Escherichia coli MCR-1 Af 45 and Klebsiella pneumoniae SSI3010.

[2] = system: Escherichia coli ATCC 25922; details: ATCC 25922
Description: as §1, §2, §3

[3] = system: Escherichia coli MCR-1 Af 45; details: MCR-1 Af 45
Description: as §1, §2, §3

[4] = system: human red blood cells (hRBC); assay: Hemolysis of human red blood cells; format: cell-based; details: red cells of human, 1 h
Description: Lyophilized peptides were weighed on a Microbalance (Mettler MT5) and dissolved in sterile water to a final concentration of 1 mg/mL. Stock solutions were kept at +4° C., light protected. The peptides were tested for their hemolytic activity against human red blood cells (hRBC). Fresh hRBC were washed three times with phosphate buffered saline (PBS) and centrifuged for 5 min at 3000×g. Compounds (200 μg/mL) were incubated with 20% hRBC (v/v) for 1 h at 37° C. and shaking at 300 rpm. […] The samples were centrifuged, the supernatants were 8-fold diluted in PBS buffer and the optical densities (OD) were measured at 540 nm. […] Percent hemolysis was calculated as follows: (OD540peptide/OD540H2O)×100%.

SMILES | Klebsiella pneumoniae SSI3010 MIC [1] | Escherichia coli ATCC 25922 MIC [2] | Escherichia coli MCR-1 Af 45 MIC [3] | Hemolysis at 0.2 g/L [4]
CCCC[C@H](NC(=O)[C@H](CCCNC(=N)N)NC(=O)[C@H](CCN)NC(=O)[C@@H]1CSSC[C@H](NC(=O)[C@H](Cc2ccc(O)cc2)NC(=O)[C@@H](NC(=O)[C@@H](NC(=O)[C@@H]2CCCN2C(=O)[C@@H](NC(=O)[C@H](N)CCCCN)C(C)C)[C@@H](C)CC)[C@@H](C)CC)C(=O)N[C@@H](CC(N)=O)C(=O)N[C@@H](CCCNC(=N)N)C(=O)N[C@@H](CCCNC(=N)N)C(=O)N[C@@H]([C@@H](C)O)C(=O)N[C@H](CCN)C(=O)N[C@@H](CCCCN)C(=O)N1)C(=O)O [Example 1] (HELM PEPTIDE1{[dK].V.P.I.I.Y.C.N.R.R.T.[NCC[C@@H](N[*:1])C(=O)[*:2]].K.C.[Dab].R.[Nle]}$PEPTIDE1,PEPTIDE1,7:R3-14:R3$$$V2.0) | 0.125 µg/mL | 0.0625 µg/mL | 0.0625 µg/mL | 0%
CCCC[C@H](NC(=O)[C@H](CCCNC(=N)N)NC(=O)[C@H](CCN)NC(=O)[C@@H]1CSSC(C)(C)[C@H](NC(=O)[C@H](Cc2ccc(O)cc2)NC(=O)[C@@H](NC(=O)[C@@H](NC(=O)[C@@H]2CCCN2C(=O)[C@@H](NC(=O)[C@@H]2CCCN2)C(C)C)[C@@H](C)CC)[C@@H](C)CC)C(=O)N[C@@H](CC(N)=O)C(=O)N[C@@H](CCCNC(=N)N)C(=O)N[C@@H](CCN)C(=O)N[C@@H]([C@@H](C)O)C(=O)N[C@H](CCN)C(=O)N[C@@H](CCCCN)C(=O)N1)C(=O)O [Example 2, Pro-Val-Pro-Ile-Ile-Tyr-Pen-Asn-Arg-Dab-Thr-^DDab-Lys-Cys-Dab-Arg-Nle] (HELM PEPTIDE1{P.V.P.I.I.Y.[Pen].N.R.[Dab].T.[NCC[C@@H](N[*:1])C(=O)[*:2]].K.C.[Dab].R.[Nle]}$PEPTIDE1,PEPTIDE1,7:R3-14:R3$$$V2.0) | 0.25 µg/mL | 0.0625 µg/mL | 0.0625 µg/mL | 0%
CCCC[C@H](NC(=O)[C@H](CCCNC(=N)N)NC(=O)[C@H](CCC(N)=O)NC(=O)[C@@H]1CSSC(C)(C)[C@H](NC(=O)[C@H](Cc2ccc(O)cc2)NC(=O)[C@@H](NC(=O)[C@@H](NC(=O)[C@@H]2C[C@@H](N)CN2C(=O)[C@@H](NC(=O)[C@@H]2CCCN2)C(C)C)[C@@H](C)CC)[C@@H](C)CC)C(=O)N[C@@H](CC(N)=O)C(=O)N[C@@H](CCCNC(=N)N)C(=O)N[C@@H](CCN)C(=O)N[C@@H]([C@@H](C)O)C(=O)N[C@H](CCN)C(=O)N[C@@H](CCCCN)C(=O)N1)C(=O)O [Example 3, Pro-Val-Pro((4R)NH2)-Ile-Ile-Tyr-Pen-Asn-Arg-Dab-Thr-^DDab-Lys-Cys-Gln-Arg-Nle] (HELM PEPTIDE1{P.V.[N[C@@H]1C[C@@H](C(=O)[*:2])N([*:1])C1].I.I.Y.[Pen].N.R.[Dab].T.[NCC[C@@H](N[*:1])C(=O)[*:2]].K.C.Q.R.[Nle]}$PEPTIDE1,PEPTIDE1,7:R3-14:R3$$$V2.0) | 0.25 µg/mL | 0.125 µg/mL | 0.25 µg/mL | 0%
CCCC[C@H](NC(=O)[C@H](CCCNC(=N)N)NC(=O)[C@H](CCN)NC(=O)[C@@H]1CSSC(C)(C)[C@H](NC(=O)[C@H](Cc2ccc(O)cc2)NC(=O)[C@@H](NC(=O)[C@@H](NC(=O)[C@@H]2CCCN2C(=O)[C@@H](NC(=O)[C@@H]2C[C@@H](N)CN2)C(C)C)[C@@H](C)CC)[C@@H](C)CC)C(=O)N[C@@H](CC(N)=O)C(=O)N[C@@H](CCCNC(=N)N)C(=O)N[C@@H](CCN)C(=O)N[C@@H]([C@@H](C)O)C(=O)N[C@H](CCN)C(=O)N[C@@H](CCCCN)C(=O)N1)C(=O)O [Example 4, Pro((4R)NH2)-Val-Pro-Ile-Ile-Tyr-Pen-Asn-Arg-Dab-Thr-^DDab-Lys-Cys-Dab-Arg-Nle] (HELM PEPTIDE1{[N[C@H]1CN[C@H](C(=O)[*:2])C1].V.P.I.I.Y.[Pen].N.R.[Dab].T.[NCC[C@@H](N[*:1])C(=O)[*:2]].K.C.[Dab].R.[Nle]}$PEPTIDE1,PEPTIDE1,7:R3-14:R3$$$V2.0) | 0.125 µg/mL | 0.125 µg/mL | 0.125 µg/mL | 0%
CC[C@H](C)[C@H](NC(=O)[C@@H]1C[C@@H](O)CN1C(=O)[C@@H](NC(=O)[C@@H]1C[C@@H](N)CN1C(=O)CNCCCN)C(C)C)C(=O)N[C@H](C(=O)N[C@@H](Cc1ccc(O)cc1)C(=O)N[C@@H]1C(=O)N[C@@H](CC(N)=O)C(=O)N[C@@H](CCCNC(=N)N)C(=O)N[C@@H](CCN)C(=O)N[C@@H]([C@@H](C)O)C(=O)N[C@H](CCN)C(=O)N[C@@H](CCCCN)C(=O)N[C@H](C(=O)N[C@@H](CCN)C(=O)N[C@@H](CCCNC(=N)N)C(=O)N[C@@H](Cc2ccc(O)cc2)C(=O)O)CSSC1(C)C)[C@@H](C)O [Example 51, Norn-Pro((4R)NH2)-Val-Hyp-Ile-Thr-Tyr-Pen-Asn-Arg-Dab-Thr-^DDab-Lys-Cys-Dab-Arg-Tyr] (H-[Gly(N(CH2)3NH2)][Pro(4R-NH2)]V[Hyp]ITY[Pen]NR[Dab]T[dDab]KC[Dab]RY-OH; disulfide 8-15) | 0.25 µg/mL | 0.0625 µg/mL |  | 0%
CC[C@H](C)[C@H](NC(=O)[C@@H]1C[C@@H](O)CN1C(=O)[C@@H](NC(=O)[C@@H]1C[C@@H](N)CN1C(=O)CNCCCCN)C(C)C)C(=O)N[C@H](C(=O)N[C@@H](Cc1ccc(O)cc1)C(=O)N[C@@H]1C(=O)N[C@@H](CC(N)=O)C(=O)N[C@@H](CCCNC(=N)N)C(=O)N[C@@H](CCN)C(=O)N[C@@H]([C@@H](C)O)C(=O)N[C@H](CCN)C(=O)N[C@@H](CCCCN)C(=O)N[C@H](C(=O)N[C@@H](CCN)C(=O)N[C@@H](CCCNC(=N)N)C(=O)N[C@@H](Cc2ccc(O)cc2)C(=O)O)CSSC1(C)C)[C@@H](C)O [Example 52, Nlys-Pro((4R)NH2)-Val-Hyp-Ile-Thr-Tyr-Pen-Asn-Arg-Dab-Thr-^DDab-Lys-Cys-Dab-Arg-Tyr] (H-[Nlys][Pro(4R-NH2)]V[Hyp]ITY[Pen]NR[Dab]T[dDab]KC[Dab]RY-OH; disulfide 8-15) | 0.125 µg/mL | 0.0625 µg/mL |  | 0%
CCCC[C@H](NC(=O)[C@H](CCCNC(=N)N)NC(=O)[C@H](CCN)NC(=O)[C@@H]1CSSC[C@H](NC(=O)[C@H](Cc2ccc(O)cc2)NC(=O)[C@@H](NC(=O)[C@@H](NC(=O)[C@@H]2C[C@@H](O)CN2C(=O)[C@@H](NC(=O)[C@@H]2C[C@@H](O)CN2C(=O)[C@H](CCCCN)NC(=O)[C@@H](N)CCCCN)C(C)C)[C@@H](C)CC)[C@@H](C)CC)C(=O)N[C@@H](CC(N)=O)C(=O)N[C@@H](CCCNC(=N)N)C(=O)N[C@@H](CCN)C(=O)N[C@@H]([C@@H](C)O)C(=O)N[C@H](CCN)C(=O)N[C@@H](CCCCN)C(=O)N1)C(=O)O [Example 78, Lys-Lys-Hyp-Val-Hyp-Ile-Ile-Tyr-Cys-Asn-Arg-Dab-Thr-^DDab-Lys-Cys-Dab-Arg-Nle] (HELM PEPTIDE1{K.K.[Hyp].V.[Hyp].I.I.Y.C.N.R.[Dab].T.[NCC[C@@H](N[*:1])C(=O)[*:2]].K.C.[Dab].R.[Nle]}$PEPTIDE1,PEPTIDE1,9:R3-16:R3$$$V2.0) | 0.125 µg/mL | 0.125 µg/mL |  | 0%
CC[C@H](C)[C@H](NC(=O)[C@@H]1C[C@@H](O)CN1C(=O)[C@@H](NC(=O)[C@@H]1C[C@@H](N)CN1C(=O)[C@H](CCCCN)NC(=O)[C@@H](N)CCCCN)C(C)C)C(=O)N[C@H](C(=O)N[C@@H](Cc1ccc(O)cc1)C(=O)N[C@@H]1C(=O)N[C@@H](CC(N)=O)C(=O)N[C@@H](CCCNC(=N)N)C(=O)N[C@@H](CCN)C(=O)N[C@@H]([C@@H](C)O)C(=O)N[C@H](CCN)C(=O)N[C@@H](CCCCN)C(=O)N[C@H](C(=O)N[C@@H](CCN)C(=O)N[C@@H](CCCNC(=N)N)C(=O)N[C@@H](Cc2ccc(O)cc2)C(=O)O)CSSC1(C)C)[C@@H](C)O [Example 127, Lys-Lys-Pro((4R)NH2)-Val-Hyp-Ile-Thr-Tyr-Pen-Asn-Arg-Dab-Thr-^DDab-Lys-Cys-Dab-Arg-Tyr] (HELM PEPTIDE1{K.K.[N[C@@H]1C[C@@H](C(=O)[*:2])N([*:1])C1].V.[Hyp].I.T.Y.[Pen].N.R.[Dab].T.[NCC[C@@H](N[*:1])C(=O)[*:2]].K.C.[Dab].R.Y}$PEPTIDE1,PEPTIDE1,9:R3-16:R3$$$V2.0; N-terminus and C-terminus assumed) | 0.0625 µg/mL | 0.0625 µg/mL |  | 0%
